This is an account of results in US11040958B2, “Triazole antimicrobial derivative, pharmaceutical composition and use thereof” (priority 2017, dated 2021).

Where two headings read alike, the source gives them in different places.

Usually Solubility stands for the dissolved amount per volume that the medium holds. Read a high Solubility as a readily soluble substance. In general, Cmax refers to the maximum level reached in the sampled fluid or tissue.

A short description of data set [1]: Solubility test in deionized water (HPLC, external calibration). It counts as physicochemical. As to the method: Experimental condition: 25±2° C.
Dissolving medium: deionized water
Experimental method: 1 mg voriconazole and appropriate amount of each compound were weighed, placed in 1 ml deionized water separately, shaken vigorously for 30 s every 5 mins for 30 mins.

Data set [2] is described as follows: Solid stability test (25°C, RH 60%, 30 days). It counts as physicochemical. To be noted: 25°C±2°C, relative humidity 60%±2%. As to the method: Experimental conditions: 25° C.±2° C., relative humidity 60%±2%
Experimental instrument: Agilent 1260 HPLC; chamber for stability test
Experimental method: each compound of the present disclosure was packaged (the inner packaging material was a penicillin bottle; the outer packaging material was a double-layer aluminum foil bag, and a desiccant was added inside and outside the package), placed in the chamber for stability test, at a temperature of 25° C.±2° C. and a relative humidity of 60%±2%. The degradation situation of the compounds for 30 days was examined. The contents of total impurities before and after 30 days of each compound were compared and the results were as follows: […]

A short description of data set [3]: Pharmacokinetics after single gastrointestinal (gavage) administration in rats (plasma voriconazole). To be noted: SD rats, 2.5 mg/kg (calculated as voriconazole). It counts as in vivo. Here is the method:
Dosing volume for administration: 10 ml/kg
Solvent medium for administration: except for the positive voriconazole group using CMC-Na, the other groups using normal saline
Route of administration: gavage

The nature of data set [4]: In vitro metabolic stability in rat intestinal S9. The class given is in vitro ADME. The following applies: 37°C, S9 1 mg/mL, compound 10 μM, NADPH regeneration system. Here is the method: (§1) The two reaction systems were set up three samples in parallel, while each sample was taken in an amount of 100 μL at 1 min, 2 mins, 5 mins, 15 mins, and 30 mins after the reaction, added to the centrifuge tube containing 400 μL of 0° C. pre-cooled internal standard working fluid and terminated the reaction. The sample was mixed by vortex for 1 min, centrifuged at 10,000×g for 10 mins in a 4° C. pre-cooled high-speed centrifuge. The supernatant was taken for HPLC detection. […] Concentration of mother liquor of compounds: 1 mM […] [table]

Data set [5] is described as follows: In vitro metabolic stability in human plasma. The class given is in vitro ADME. To be noted: 37°C, compound 10 μM. Here is the method:
The two reaction systems were set up three samples in parallel, while each sample was taken in an amount of 100 μL at 1 min, 2 mins, 5 mins, 15 mins, and 30 mins after the reaction, added to the centrifuge tube containing 400 μL of 0° C. pre-cooled internal standard working fluid and terminated the reaction. The sample was mixed by vortex for 1 min, centrifuged at 10,000×g for 10 mins in a 4° C. pre-cooled high-speed centrifuge. The supernatant was taken for HPLC detection.

Data set [6] has as its system Candida albicans ATCC10231. Briefly: Systemic fungal infection in mice, administration by gavage, survival. To be noted: ICR mice, 5 mg/kg (calculated as voriconazole) once daily for 5 days. It counts as in vivo. Here is the method: ICR mice, weighing 18-22 g, male, provided by the Hubei Experimental Animal Center.
The standard strain Candida albicans was purchased from the American Type Culture Collection, and the strain number was ATCC10231.
Before the experiment, a small amount of Candida albicans was picked from the SDA medium preserved at 4° C. by inoculation circle, inoculated into 1 ml of YPD culture medium, and cultured at 30° C. while being shaken at 200 rpm for 16 hours to make the fungus in the late stage of exponential growth. Blood cell counting plate was used to count, and the concentration of the broth was adjusted to 1*10^3−5*10^3 CFU/ml with RPMI1640 medium. The Candida albicans monoclone on the SDA plate was picked, inoculated into 1 ml YPD medium, cultured at 35° C., 200 rpm for 16 hours to the late exponential growth phase, 1% of which was then inoculated in fresh medium for 6 hours, centrifuged at 1000×g for 5 mins, washed three times with saline until the supernatant was colorless, while hemocytometer was used to count. The cell concentration was adjusted to 5*10^6/ml. The tail vein injection of 0.1 ml/10 g was carried out to cause a systemic fungal infection in mice. The mice were randomized into groups of 10 each. Voriconazole used was in the form of a suspension prepared with CMC-Na (Shanghai Panhong Chemical Technology Co., Ltd.), while other tested drugs were dissolved in saline and sonicated until clarified for administration. After establishing a systemic fungal infection model in mice for 2 hours, each group was administered by gavage with 5 mg/kg (calculated as voriconazole) drug, with the volume for administration of 0.1 ml/10 g. The mice in the model group were administered 0.1 ml/10 g of 0.9% sodium chloride solution, once daily, for 5 consecutive days. The death situation of the mice was inspected and the survival time was recorded. After a total of 7 days of observation, all dead mice were treated with fire using ethanol.

Data set [7] is described as follows: In vitro metabolic stability in rat plasma. The class given is in vitro ADME. To be noted: 37°C, compound 10 μM. As to the method: The two reaction systems were set up three samples in parallel, while each sample was taken in an amount of 100 μL at 1 min, 2 mins, 5 mins, 15 mins, and 30 mins after the reaction, added to the centrifuge tube containing 400 μL of 0° C. pre-cooled internal standard working fluid and terminated the reaction. The sample was mixed by vortex for 1 min, centrifuged at 10,000×g for 10 mins in a 4° C. pre-cooled high-speed centrifuge. The supernatant was taken for HPLC detection. […] Concentration of mother liquor of compounds: 1 mM […]

The nature of data set [8]: In vitro metabolic stability in human intestinal S9. The class given is in vitro ADME. The following applies: 37°C, S9 1 mg/mL, compound 10 μM, NADPH regeneration system. Here is the method: as §1
The test system of data set [9] is Candida albicans ATCC10231. The data set can be described thus: Systemic fungal infection in mice, intravenous administration, survival. To be noted: ICR mice, tail vein, 5 mg/kg (calculated as voriconazole) once daily for 5 days. It counts as in vivo. In a few lines:
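Male ICR mice (18-22 g) infected via tail vein with C. albicans ATCC10231 at 5*10^6 cells/ml, 0.1 ml/10 g; groups of 10. From 2 h post-infection, 5 mg/kg (as voriconazole) given i.v. once daily for 5 days, saline vehicle (voriconazole in sulfobutyl ether-β-cyclodextrin); survival time recorded over 7 days.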

The nature of data set [10]: Pharmacokinetics after single intravenous administration in rats (plasma voriconazole). In a few lines:
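SD rats (180–220 g, 3 male/3 female per group) given single tail-vein dose of 2.5 mg/kg (as voriconazole). Plasma voriconazole measured in blood sampled at multiple time points post-dose.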

Setting [11] is: voriconazole in plasma, SD rats, tail vein injection, 2.5 mg/kg (calculated as voriconazole).

Regarding `CC(OC(=O)N(C)c1ncccc1COC(=O)[C@@H](N)CCCN)[n+]1cnn(C[C@](O)(c2ccc(F)cc2F)[C@@H](C)c2ncncc2F)c1.Cl.Cl.Cl.[Br-]` (stereo partly drawn) [QR16008], the Solubility in [1] (deionized water, 25±2°C) was greater than 50 mg/mL. Also, in data set [2], the “Content increase of total impurity (25° C., placed for 30 days)” value was determined as 1.05%. In data set [3], the AUClast is 8745 ± 2365 ng·h/mL, the Cmax was 825 ± 256 ng/mL and the T1/2 is 159 ± 34.8 min. Further, the “Rat intestinal S9 T1/2” value in data set [4] is recorded as 32.52 ± 7.82 min. Further, the “Human plasma T1/2” value in [5] is 9.49 ± 1.31 min. In addition, in data set [6], the “survival rate of mice, day 1” value is 100%; the “survival rate of mice, day 2” value is recorded as 100%; the “survival rate of mice, day 3” value is given as 100%; the “survival rate of mice, day 4” value is recorded as 100%. In data set [6], the “survival rate of mice, day 5” value is reported as 90%; the “survival rate of mice, day 6” value was 80%; the “survival rate of mice, day 7” value was 80%. Besides, in [7], the “Rat plasma T1/2” value is on record as 10.58 ± 2.95 min. Also, in data set [8], the “Human intestinal S9 T1/2” value is given as 30.25 ± 4.90 min.

Turning to `CC(OC(=O)N(C)c1ncccc1COC(=O)[C@@H](N)CCCCN)[n+]1cnn(C[C@](O)(c2ccc(F)cc2F)[C@@H](C)c2ncncc2F)c1.[Cl-]` (stereo partly drawn) [QR16017], the Solubility in data set [1] is recorded as greater than 50 mg/mL. Further, in data set [9] (day 1), the “survival rate of mice, day 1” value was 100%. Besides, in data set [9] (day 2), the “survival rate of mice, day 2” value is listed as 100%. Besides, in data set [9] (day 3), the “survival rate of mice, day 3” value is given as 100%. The “survival rate of mice, day 4” value in data set [9] (day 4) is on record as 100%. Further, the “survival rate of mice, day 5” value in data set [9] (day 5) is 100%. Further, the “survival rate of mice, day 6” value in [9] (day 6) was 100%. Also, in [3], the AUClast is 8695 ± 2958 ng·h/mL, the Cmax is 952 ± 421 ng/mL and the T1/2 is 177 ± 75 min. Besides, the “Rat intestinal S9 T1/2” value in data set [4] is given as 15.69 ± 6.95 min. In addition, the “Human plasma T1/2” value in data set [5] was 0.95 ± 0.28 min. Further, in data set [6], the “survival rate of mice, day 1” value is listed as 100%; the “survival rate of mice, day 2” value is listed as 100%; the “survival rate of mice, day 3” value is given as 90%; the “survival rate of mice, day 4” value is given as 90%. For the same compound, in [6], the “survival rate of mice, day 5” value is given as 90%; the “survival rate of mice, day 6” value is 90%; the “survival rate of mice, day 7” value is 80%. Also, the “Rat plasma T1/2” value in data set [7] came out at 0.78 ± 0.86 min. In addition, the “Human intestinal S9 T1/2” value in [8] was found to be 11.25 ± 2.21 min. In addition, in data set [10] (setting [11]), the AUClast is 10259 ± 3285 ng·h/mL and the T1/2 was 167 ± 45 min.

As to `CC(OC(=O)N(C)c1ncccc1COC(=O)CN(C)C)[n+]1cnn(C[C@](O)(c2ccc(F)cc2F)[C@@H](C)c2ncncc2F)c1.Cl.Cl.[Cl-]` (stereo partly drawn) [QR16045], the Solubility in data set [1] (deionized water, 25±2°C) is on record as greater than 50 mg/mL. Also, the “Content increase of total impurity (25° C., placed for 30 days)” value in data set [2] is reported as 2.23%. For the same compound, in data set [3], the AUClast is 7859 ± 2256 ng·h/mL, the Cmax is on record as 562 ± 158 ng/mL and the T1/2 was 155 ± 52.8 min. Further, the “Rat intestinal S9 T1/2” value in data set [4] is on record as 27.85 ± 6.58 min. Further, in data set [5], the “Human plasma T1/2” value is given as 8.95 ± 0.12 min. In addition, in [6], the “survival rate of mice, day 1” value is given as 100%; the “survival rate of mice, day 2” value is recorded as 100%; the “survival rate of mice, day 3” value is 90%; the “survival rate of mice, day 4” value is listed as 90%. In data set [6], the “survival rate of mice, day 5” value is reported as 90%; the “survival rate of mice, day 6” value was 90%; the “survival rate of mice, day 7” value is reported as 80%. For the same compound, the “Rat plasma T1/2” value in [7] was determined as 8.88 ± 0.55 min. For the same compound, the “Human intestinal S9 T1/2” value in [8] came out at 32.97 ± 8.45 min. In data set [10] (rat, in vivo, 2.5 mg/kg), the AUClast worked out at 8586 ± 1856 ng·h/mL and the T1/2 turned out to be 164 ± 46.8 min.
